{"source": "patent US9296757B2", "about": "“Substituted benzothienopyrimidines” (BAYER PHARMA AKTIENGESELLSCHAFT, priority 2012, dated 2016)", "data": [{"molecular_target": "human full-length MKNK1 (Homo sapiens (Human), UniProt Q9BUB5, T344D)", "sequence (Q9BUB5 other isoform, or with tags, fused parts or gaps T344D)": "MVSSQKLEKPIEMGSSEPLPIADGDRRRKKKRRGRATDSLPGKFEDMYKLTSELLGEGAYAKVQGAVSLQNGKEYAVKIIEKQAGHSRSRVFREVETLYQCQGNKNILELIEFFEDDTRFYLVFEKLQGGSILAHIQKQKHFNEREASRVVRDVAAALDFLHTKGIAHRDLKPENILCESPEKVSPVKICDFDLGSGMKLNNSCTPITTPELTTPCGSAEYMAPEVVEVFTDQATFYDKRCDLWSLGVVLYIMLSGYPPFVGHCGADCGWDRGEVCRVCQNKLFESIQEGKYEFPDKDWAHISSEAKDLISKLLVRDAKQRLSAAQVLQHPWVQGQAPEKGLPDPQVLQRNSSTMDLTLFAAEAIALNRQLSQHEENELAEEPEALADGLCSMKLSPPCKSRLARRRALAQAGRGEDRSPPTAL", "assay": "MKNK1 kinase high ATP assay (TR-FRET)", "format": "biochemical", "conditions": "high ATP (2 mM final), 15 min preincubation with enzyme", "protocol": "MKNK1-inhibitory activity at high ATP of compounds of the present invention after their preincubation with MKNK1 was quantified employing the TR-FRET-based MKNK1 high ATP assay as described in the following paragraphs.\nA recombinant fusion protein of Glutathione-S-Transferase (GST, N-terminally) and human full-length MKNK1 (amino acids 1-424 and T344D of accession number BAA 19885.1), expressed in insect cells using baculovirus expression system and purified via glutathione sepharose affinity chromatography, was purchased from Carna Biosciences (product no 02-145) and used as enzyme. As substrate for the kinase reaction the biotinylated peptide biotin-Ahx-IKKRKLTRRKSLKG (C-terminus in amide form) was used, which can be purchased e.g. from the company Biosyntan (Berlin-Buch, Germany).\nFor the assay 50 nL of a 100 fold concentrated solution of the test compound in DMSO was pipetted into a black low volume 384 well microtiter plate (Greiner Bio-One, Frickenhausen, Germany), 2 μL of a solution of MKNK1 in aqueous assay buffer [50 mM HEPES pH 7.5, 5 mM MgCl2, 1.0 mM dithiothreitol, 0.005% (v/v) Nonidet-P40 (Sigma)] was added and the mixture was incubated for 15 min at 22° C. to allow pre-binding of the test compounds to the enzyme before the start of the kinase reaction. Then the kinase reaction was started by the addition of 3 μL of a solution of adenosine-tri-phosphate (ATP, 3.3 mM=>final conc. in the 5 μL assay volume is 2 mM) and substrate (0.1 μM=>final conc. in the 5 μL assay volume is 0.06 μM) in assay buffer and the resulting mixture was incubated for a reaction time of 30 min at 22° C. The concentration of MKNK1 was adjusted depending of the activity of the enzyme lot and was chosen appropriate to have the assay in the linear range, typical concentrations were in the range of 0.003 μg/mL. The reaction was stopped by the addition of 5 μL of a solution of TR-FRET detection reagents (5 nM streptavidine-XL665 [Cisbio Bioassays, Codolet, France] and 1 nM anti-ribosomal protein S6 (pSer236)-antibody from Invitrogen [#44921G] and 1 nM LANCE EU-W1024 labeled ProteinG [Perkin-Elmer, product no. AD0071]) in an aqueous EDTA-solution (100 mM EDTA, 0.1% (w/v) bovine serum albumin in 50 mM HEPES pH 7.5).\nThe resulting mixture was incubated for 1 h at 22° C. to allow the formation of complex between the phosphorylated biotinylated peptide and the detection reagents. Subsequently the amount of phosphorylated substrate was evaluated by measurement of the resonance energy transfer from the Eu-chelate to the streptavidine-XL. Therefore, the fluorescence emissions at 620 nm and 665 nm after excitation at 350 nm were measured in a TR-FRET reader, e.g. a Rubystar (BMG Labtechnologies, Offenburg, Germany) or a Viewlux (Perkin-Elmer). The ratio of the emissions at 665 nm and at […] was taken as the measure for the amount of phosphorylated substrate. The data were normalised (enzyme reaction without inhibitor=0% inhibition, all other assay components but no enzyme=100% inhibition).", "units": {"IC50": "µM"}, "values": [{"smiles": "CN(CCC#N)C(=O)C1CCc2c(sc3ncnc(Nc4ccc5[nH]c(=O)sc5c4)c23)C1", "note": "(racemic) [Example 48, (RS)-N-(2-cyanoethyl)-N-methyl-4-[(2-oxo-2,3-dihydro-1,3-benzothiazol-6-yl)amino]-5,6,7,8-tetrahydro[1]benzothieno[2,3-d]pyrimidine-7-carboxamide]", "IC50": 0.065}, {"smiles": "CN(CC#N)C(=O)C1CCc2c(sc3ncnc(Nc4ccc5[nH]c(=O)sc5c4)c23)C1", "note": "(racemic) [Example 49, (RS)-N-(cyanomethyl)-N-methyl-4-[(2-oxo-2,3-dihydro-1,3-benzothiazol-6-yl)amino]-5,6,7,8-tetrahydro[1]benzothieno[2,3-d]pyrimidine-7-carboxamide]", "IC50": 0.045}, {"smiles": "CC1CCN(C(=O)C2CCc3c(sc4ncnc(Nc5ccc6[nH]c(=O)sc6c5)c34)C2)CC1", "note": "(racemic) [Example 50, (RS)-6-({7-[(4-methylpiperidin-1-yl)carbonyl]-5,6,7,8-tetrahydro[1]benzothieno[2,3-d]pyrimidin-4-yl}amino)-1,3-benzothiazol-2(3H)-one]", "IC50": 0.043}, {"smiles": "O=C(C1CCc2c(sc3ncnc(Nc4ccc5[nH]c(=O)sc5c4)c23)C1)N1CCC(O)C1", "note": "(racemic) [Example 51, 6-{[(7RS)-7-{[(3RS)-3-hydroxypyrrolidin-1-yl]carbonyl}-5,6,7,8-tetrahydro[1]benzothieno[2,3-d]pyrimidin-4-yl]amino}-1,3-benzothiazol-2(3H)-one]", "IC50": 0.075}, {"smiles": "COCCN(CCOC)C(=O)C1CCc2c(sc3ncnc(Nc4ccc5[nH]c(=O)sc5c4)c23)C1", "note": "(racemic) [Example 52, (RS)-N,N-bis(2-methoxyethyl)-4-[(2-oxo-2,3-dihydro-1,3-benzothiazol-6-yl)amino]-5,6,7,8-tetrahydro[1]benzothieno[2,3-d]pyrimidine-7-carboxamide]", "IC50": 0.03}, {"smiles": "O=C(C1CCc2c(sc3ncnc(Nc4ccc5[nH]c(=O)sc5c4)c23)C1)N1CCCC(O)C1", "note": "(racemic) [Example 53, 6-{[(7RS)-7-{[(3RS)-3-hydroxypiperidin-1-yl]carbonyl}-5,6,7,8-tetrahydro[1]benzothieno[2,3-d]pyrimidin-4-yl]amino}-1,3-benzothiazol-2(3H)-one]", "IC50": 0.052}, {"smiles": "CC(C)N(CCO)C(=O)C1CCc2c(sc3ncnc(Nc4ccc5[nH]c(=O)sc5c4)c23)C1", "note": "(racemic) [Example 54, (RS)-N-(2-hydroxyethyl)-N-isopropyl-4-[(2-oxo-2,3-dihydro-1,3-benzothiazol-6-yl)amino]-5,6,7,8-tetrahydro[1]benzothieno[2,3-d]pyrimidine-7-carboxamide]", "IC50": 0.028}, {"smiles": "O=C(C1CCc2c(sc3ncnc(Nc4ccc5[nH]c(=O)sc5c4)c23)C1)N1Cc2ccccc2C1", "note": "(racemic) [Example 55, (RS)-6-{[7-(1,3-dihydro-2H-isoindol-2-ylcarbonyl)-5,6,7,8-tetrahydro[1]benzothieno[2,3-d]pyrimidin-4-yl]amino}-1,3-benzothiazol-2(3H)-one]", "IC50": 0.072}, {"smiles": "CN(CC1CCCO1)C(=O)C1CCc2c(sc3ncnc(Nc4ccc5[nH]c(=O)sc5c4)c23)C1", "note": "(racemic) [Example 56, (7RS)-N-methyl-4-[(2-oxo-2,3-dihydro-1,3-benzothiazol-6-yl)amino]-N-[(2RS)-tetrahydrofuran-2-ylmethyl]-5,6,7,8-tetrahydro[1]benzothieno[2,3-d]pyrimidine-7-carboxamide]", "IC50": 0.027}, {"smiles": "O=C(C1CCc2c(sc3ncnc(Nc4ccc5[nH]c(=O)sc5c4)c23)C1)N1CCN(CCCO)CC1", "note": "(racemic) [Example 57, (RS)-6-[(7-{[4-(3-hydroxypropyl)piperazin-1-yl]carbonyl}-5,6,7,8-tetrahydro[1]benzothieno[2,3-d]pyrimidin-4-yl)amino]-1,3-benzothiazol-2(3H)-one]", "IC50": 0.039}, {"smiles": "CC(C)CN(C)C(=O)C1CCc2c(sc3ncnc(Nc4ccc5[nH]c(=O)sc5c4)c23)C1", "note": "(racemic) [Example 58, (RS)-N-isobutyl-N-methyl-4-[(2-oxo-2,3-dihydro-1,3-benzothiazol-6-yl)amino]-5,6,7,8-tetrahydro[1]benzothieno[2,3-d]pyrimidine-7-carboxamide]", "IC50": 0.063}, {"smiles": "CCN(C)C(=O)C1CCc2c(sc3ncnc(Nc4ccc5[nH]c(=O)sc5c4)c23)C1", "note": "(racemic) [Example 59, (RS)-N-ethyl-N-methyl-4-[(2-oxo-2,3-dihydro-1,3-benzothiazol-6-yl)amino]-5,6,7,8-tetrahydro[1]benzothieno[2,3-d]pyrimidine-7-carboxamide]", "IC50": 0.04}, {"smiles": "CCN1CCN(C(=O)C2CCc3c(sc4ncnc(Nc5ccc6[nH]c(=O)sc6c5)c34)C2)CC1", "note": "(racemic) [Example 60, (RS)-6-({7-[(4-ethylpiperazin-1-yl)carbonyl]-5,6,7,8-tetrahydro[1]benzothieno[2,3-d]pyrimidin-4-yl}amino)-1,3-benzothiazol-2(3H)-one]", "IC50": 0.036}, {"smiles": "CC(=O)N(C)C1CCN(C(=O)C2CCc3c(sc4ncnc(Nc5ccc6[nH]c(=O)sc6c5)c34)C2)C1", "note": "(racemic) [Example 61, N-methyl-N-[(3RS)-1-({(7RS)-4-[(2-oxo-2,3-dihydro-1,3-benzothiazol-6-yl)amino]-5,6,7,8-tetrahydro[1]benzothieno[2,3-d]pyrimidin-7-yl}carbonyl)pyrrolidin-3-yl]acetamide]", "IC50": 0.032}, {"smiles": "CN(C)C(=O)CN(C)C(=O)C1CCc2c(sc3ncnc(Nc4ccc5[nH]c(=O)sc5c4)c23)C1", "note": "(racemic) [Example 62, (RS)-N-[2-(dimethylamino)-2-oxoethyl]-N-methyl-4-[(2-oxo-2,3-dihydro-1,3-benzothiazol-6-yl)amino]-5,6,7,8-tetrahydro[1]benzothieno[2,3-d]pyrimidine-7-carboxamide]", "IC50": 0.04}, {"smiles": "CCN(CCC#N)C(=O)C1CCc2c(sc3ncnc(Nc4ccc5[nH]c(=O)sc5c4)c23)C1", "note": "(racemic) [Example 63, (RS)-N-(2-cyanoethyl)-N-ethyl-4-[(2-oxo-2,3-dihydro-1,3-benzothiazol-6-yl)amino]-5,6,7,8-tetrahydro[1]benzothieno[2,3-d]pyrimidine-7-carboxamide]", "IC50": 0.038}, {"smiles": "O=C(C1CCc2c(sc3ncnc(Nc4ccc5[nH]c(=O)sc5c4)c23)C1)N1CCN2CCCCC2C1", "note": "(racemic) [Example 64, 6-({(7RS)-7-[(9aRS)-octahydro-2H-pyrido[1,2-a]pyrazin-2-ylcarbonyl]-5,6,7,8-tetrahydro[1]benzothieno[2,3-d]pyrimidin-4-yl}amino)-1,3-benzothiazol-2(3H)-one]", "IC50": 0.027}, {"smiles": "O=C(C1CCc2c(sc3ncnc(Nc4ccc5[nH]c(=O)sc5c4)c23)C1)N1CCCC(F)C1", "note": "(racemic) [Example 65, 6-{[(7RS)-7-{[(3RS)-3-fluoropiperidin-1-yl]carbonyl}-5,6,7,8-tetrahydro[1]benzothieno[2,3-d]pyrimidin-4-yl]amino}-1,3-benzothiazol-2(3H)-one]", "IC50": 0.081}, {"smiles": "CN(CCCCO)C(=O)C1CCc2c(sc3ncnc(Nc4ccc5[nH]c(=O)sc5c4)c23)C1", "note": "(racemic) [Example 66, (RS)-N-(4-hydroxybutyl)-N-methyl-4-[(2-oxo-2,3-dihydro-1,3-benzothiazol-6-yl)amino]-5,6,7,8-tetrahydro[1]benzothieno[2,3-d]pyrimidine-7-carboxamide]", "IC50": 0.034}, {"smiles": "CN(CCCO)C(=O)C1CCc2c(sc3ncnc(Nc4ccc5[nH]c(=O)sc5c4)c23)C1", "note": "(racemic) [Example 67, (RS)-N-(3-hydroxypropyl)-N-methyl-4-[(2-oxo-2,3-dihydro-1,3-benzothiazol-6-yl)amino]-5,6,7,8-tetrahydro[1]benzothieno[2,3-d]pyrimidine-7-carboxamide]", "IC50": 0.062}]}]}
